Results reported in ChEMBL document CHEMBL1201862, “PubChem BioAssay data set” (2004).
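Assay format: 96-well plates, 48-hour exposure. GI50 is the concentration that inhibits growth by half.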 Calls of active or inactive are those of the source. Cut-off read from the data, not from the text of the source: active = GI50 up to about 1.1 µM and inactive = higher.

Key:
Experiment in all cases: growth of human tumour cells (NCI), 48 h
[1] = tested on: 786-0
[2] = tested on: A498
[3] = tested on: A549
[4] = tested on: ACHN
[5] = tested on: BT-549
[6] = tested on: CAKI-1
[7] = tested on: CCRF-CEM
[8] = tested on: COLO 205
[9] = tested on: DU-145
[10] = tested on: EKVX
[11] = tested on: HCC 2998
[12] = tested on: HCT-116
[13] = tested on: HCT-15
[14] = tested on: HL-60
[15] = tested on: HOP-62
[16] = tested on: HOP-92
[17] = tested on: HT-29
[18] = tested on: Hs-578T
[19] = tested on: IGROV-1
[20] = tested on: K562
[21] = tested on: KM12
[22] = tested on: LOX IMVI
[23] = tested on: M14
[24] = tested on: MCF7
[25] = tested on: MDA-MB-231
[26] = tested on: MDA-MB-435
[27] = tested on: MDA-N
[28] = tested on: MOLT-4
[29] = tested on: Malme-3M
[30] = tested on: NCI-H226
[31] = tested on: NCI-H23
[32] = tested on: NCI-H460
[33] = tested on: NCI-H522
[34] = tested on: NCI/ADR-RES
[35] = tested on: OVCAR-3
[36] = tested on: OVCAR-4
[37] = tested on: OVCAR-5
[38] = tested on: OVCAR-8
[39] = tested on: PC-3
[40] = tested on: RPMI-8226
[41] = tested on: RXF 393
[42] = tested on: SF-268
[43] = tested on: SF-295
[44] = tested on: SF-539
[45] = tested on: SK-MEL-28
[46] = tested on: SK-MEL-2
[47] = tested on: SK-MEL-5
[48] = tested on: SK-OV-3
[49] = tested on: SN12C
[50] = tested on: SNB-19
[51] = tested on: SNB-75
[52] = tested on: SR
[53] = tested on: SW-620
[54] = tested on: TK-10
[55] = tested on: U-251
[56] = tested on: UACC-257
[57] = tested on: UACC-62
[58] = tested on: UO-31
[59] = tested on: T47D

In the case of Cc1cc(O)c2c(=O)c3ccccc3[nH]c2c1, the GI50 [1] is reported as 15.6 µM (inactive), the GI50 [2] is reported as 32.8 µM (inactive) and the GI50 [3] is reported as 29.4 µM (inactive). The GI50 [4] was 21.5 µM (inactive), the GI50 [5] was 24.8 µM (inactive) and the GI50 [6] was 11.8 µM (inactive). The GI50 [7] was 24.1 µM (inactive), the GI50 [8] was 13.2 µM (inactive) and the GI50 [9] was 35.2 µM (inactive). The GI50 [10] was 41.1 µM (inactive), the GI50 [11] was 37.3 µM (inactive) and the GI50 [12] was 20.3 µM (inactive). The GI50 [13] was 11.4 µM, the GI50 [14] was 28.3 µM (inactive) and the GI50 [15] was 23.2 µM (inactive). For the same compound, the GI50 [16] was 25.9 µM (inactive), the GI50 [17] was 8.63 µM (inactive) and the GI50 [18] was 45.3 µM (inactive). The GI50 [19] was 13.3 µM (inactive), the GI50 [20] was 9.77 µM (inactive) and the GI50 [21] was 18.5 µM (inactive). For the same compound, the GI50 [22] was 18.8 µM (inactive), the GI50 [23] was 18.1 µM (inactive) and the GI50 [24] was 0.133 µM (active). The GI50 [25] was 32.4 µM (inactive), the GI50 [26] was 27.4 µM (inactive) and the GI50 [27] was 42.9 µM (inactive). For the same compound, the GI50 [28] was 36.3 µM (inactive), the GI50 [29] was 32.7 µM (inactive) and the GI50 [30] was 23.1 µM (inactive). The GI50 [31] was 15 µM (inactive), the GI50 [32] was 14.9 µM (inactive) and the GI50 [33] was 3.56 µM (inactive). The GI50 [34] was 23.5 µM (inactive), the GI50 [35] was 29 µM (inactive) and the GI50 [36] was 15.1 µM (inactive). For the same compound, the GI50 [37] was 18.9 µM (inactive), the GI50 [38] was 23 µM (inactive) and the GI50 [39] was 19.3 µM (inactive). The GI50 [40] was 11.8 µM (inactive), the GI50 [41] was 27 µM (inactive) and the GI50 [42] was 26.8 µM (inactive). The GI50 [43] was 20 µM (inactive), the GI50 [44] was 15.7 µM (inactive) and the GI50 [45] was 42.7 µM (inactive). The GI50 [46] was 81.7 µM (inactive), the GI50 [47] was 14.7 µM (inactive) and the GI50 [48] was 52.8 µM (inactive). The GI50 [49] was 32.5 µM (inactive), the GI50 [50] was 38.5 µM (inactive) and the GI50 [51] was 29.2 µM (inactive). For the same compound, the GI50 [52] was 16 µM (inactive), the GI50 [53] was 41.6 µM (inactive) and the GI50 [54] was 49.2 µM (inactive). For the same compound, the GI50 [55] was 40.8 µM (inactive), the GI50 [56] was 20.1 µM (inactive) and the GI50 [57] was > 10 µM (inactive).
With C=C(C)[C@@H]1CC[C@]2(COC(C)=O)CC[C@]3(C)[C@H](CC[C@@H]4[C@@]5(C)CC[C@H](OC(C)=O)C(C)(C)[C@@H]5CC[C@]43C)[C@@H]12 [BETULIN DIACETATE] the GI50 [1] was > 50 µM (inactive), the GI50 [2] was > 50 µM (inactive) and the GI50 [3] was > 50 µM (inactive). The GI50 [4] was > 50 µM (inactive), the GI50 [5] was > 50 µM (inactive) and the GI50 [7] was > 50 µM (inactive). For the same compound, the GI50 [8] was > 50 µM (inactive), the GI50 [11] was 0.857 µM (active) and the GI50 [12] was > 50 µM (inactive). For the same compound, the GI50 [13] was > 50 µM, the GI50 [14] was > 33.1 µM (inactive) and the GI50 [15] was > 50 µM (inactive). The GI50 [16] was > 31.6 µM (inactive), the GI50 [17] was > 50 µM (inactive) and the GI50 [18] was > 50 µM (inactive). The GI50 [19] was > 50 µM (inactive), the GI50 [20] was > 50 µM (inactive) and the GI50 [22] was > 50 µM (inactive). The GI50 [23] was > 50 µM (inactive), the GI50 [26] was > 50 µM (inactive) and the GI50 [27] was > 50 µM (inactive). For the same compound, the GI50 [28] was > 50 µM (inactive), the GI50 [30] was > 50 µM (inactive) and the GI50 [31] was > 50 µM (inactive). For the same compound, the GI50 [33] was > 50 µM (inactive), the GI50 [34] was > 50 µM (inactive) and the GI50 [35] was 3.01 µM (inactive). The GI50 [36] was > 50 µM (inactive), the GI50 [38] was > 50 µM (inactive) and the GI50 [39] was > 50 µM (inactive). For the same compound, the GI50 [40] was > 50 µM (inactive), the GI50 [41] was 0.0385 µM (active) and the GI50 [44] was > 50 µM (inactive). The GI50 [45] was > 50 µM (inactive), the GI50 [46] was > 50 µM (inactive) and the GI50 [47] was > 50 µM (inactive). For the same compound, the GI50 [48] was > 50 µM (inactive), the GI50 [49] was > 50 µM (inactive) and the GI50 [50] was > 50 µM (inactive). For the same compound, the GI50 [51] was > 50 µM (inactive), the GI50 [52] was > 50 µM (inactive) and the GI50 [53] was > 50 µM (inactive). For the same compound, the GI50 [55] was > 50 µM (inactive), the GI50 [56] was > 50 µM (inactive) and the GI50 [57] was > 50 µM (inactive). The GI50 [58] was > 50 µM (inactive).
For c1cncc(C2(c3cc4ccccc4[nH]3)COCO2)c1 (stereo not drawn), the GI50 [1] was > 100 µM (inactive), the GI50 [3] was 94.2 µM (inactive) and the GI50 [4] was 77.3 µM (inactive). The GI50 [5] was > 100 µM (inactive), the GI50 [6] was > 100 µM (inactive) and the GI50 [7] was 10.5 µM (inactive). The GI50 [8] was 19.1 µM (inactive), the GI50 [9] was > 100 µM (inactive) and the GI50 [10] was > 100 µM (inactive). For the same compound, the GI50 [11] was > 100 µM (inactive), the GI50 [12] was 71 µM (inactive) and the GI50 [13] was > 100 µM. The GI50 [14] was 32.7 µM (inactive), the GI50 [15] was > 100 µM (inactive) and the GI50 [16] was > 100 µM (inactive). The GI50 [17] was > 100 µM (inactive), the GI50 [18] was > 100 µM (inactive) and the GI50 [19] was > 100 µM (inactive). The GI50 [20] was > 100 µM (inactive), the GI50 [21] was > 100 µM (inactive) and the GI50 [22] was > 100 µM (inactive). For the same compound, the GI50 [23] was > 100 µM (inactive), the GI50 [24] was > 100 µM (inactive) and the GI50 [25] was > 100 µM (inactive). The GI50 [26] was > 100 µM (inactive), the GI50 [28] was 97.9 µM (inactive) and the GI50 [29] was > 100 µM (inactive). The GI50 [30] was > 100 µM (inactive), the GI50 [31] was > 100 µM (inactive) and the GI50 [32] was > 100 µM (inactive). The GI50 [34] was > 100 µM (inactive), the GI50 [35] was > 100 µM (inactive) and the GI50 [36] was 65 µM (inactive). For the same compound, the GI50 [37] was > 100 µM (inactive), the GI50 [38] was > 100 µM (inactive) and the GI50 [39] was 94.2 µM (inactive). For the same compound, the GI50 [40] was > 100 µM (inactive), the GI50 [41] was > 100 µM (inactive) and the GI50 [42] was > 100 µM (inactive). For the same compound, the GI50 [43] was > 100 µM (inactive), the GI50 [44] was > 100 µM (inactive) and the GI50 [45] was > 100 µM (inactive). For the same compound, the GI50 [46] was > 100 µM (inactive), the GI50 [47] was 38.2 µM (inactive) and the GI50 [48] was > 100 µM (inactive). For the same compound, the GI50 [50] was > 100 µM (inactive), the GI50 [51] was > 100 µM (inactive) and the GI50 [52] was > 100 µM (inactive). For the same compound, the GI50 [53] was > 100 µM (inactive), the GI50 [59] was > 100 µM (inactive) and the GI50 [54] was > 100 µM (inactive). The GI50 [55] was > 100 µM (inactive), the GI50 [56] was > 100 µM (inactive) and the GI50 [57] was 96.8 µM (inactive). For the same compound, the GI50 [58] was 58.3 µM (inactive).
